# Measured values published in ChEMBL document CHEMBL1150613, “New flavonol oligoglycosides and polyacylated sucroses with inhibitory effects on aldose reductase and platelet aggregation from the flowers of Prunus mume” (J Nat Prod, 2002).
# How the values were obtained:
# [1] = biological target: Aldo-keto reductase family 1 member B1 (Rattus norvegicus, UniProt P07943); experiment: Inhibition of aldose reductase in rat lens homogenates by fluorophotometer
# [2] = biological target: Aldo-keto reductase family 1 member B1 (Rattus norvegicus) (UniProt P07943); experiment: Inhibition of aldose reductase in rat lens homogenates at 30 uM by fluorophotometry
# Platelet [3] = experiment: Inhibition of thrombin-induced platelet aggregation in washed rabbit platelets at 1.0 mM treated 2 mins before thrombin challenge by aggregometer; assay type: functional; conditions: Oryctolagus cuniculus
# Platelet [4] = experiment: Inhibition of thrombin-induced platelet aggregation in washed rabbit platelets at 0.5 mM treated 2 mins before thrombin challenge by aggregometer; assay type: functional; conditions: Oryctolagus cuniculus
# Platelet [5] = experiment: Inhibition of thrombin-induced platelet aggregation in washed rabbit platelets at 0.1 mM treated 2 mins before thrombin challenge by aggregometer; assay type: functional; conditions: Oryctolagus cuniculus
SMILES,IC50 [1] [µM],other results
COc1cc(-c2oc3cc(O)cc(O)c3c(=O)c2O[C@@H]2O[C@H](CO[C@@H]3O[C@@H](C)[C@H](O)[C@@H](O)[C@H]3O)[C@@H](O)[C@H](O)[C@H]2OC(C)=O)ccc1O,9.8,
C[C@@H]1O[C@@H](OC[C@H]2O[C@@H](Oc3c(-c4ccc(O)c(O)c4)oc4cc(O)cc(O)c4c3=O)[C@H](O)[C@@H](O)[C@@H]2O)[C@H](O)[C@H](O)[C@H]1O [RUTIN],13,
CC(=O)O[C@H]1[C@H](Oc2c(-c3ccc(O)c(O)c3)oc3cc(O)cc(O)c3c2=O)O[C@H](CO[C@@H]2O[C@@H](C)[C@H](O)[C@@H](O)[C@H]2O)[C@@H](O)[C@@H]1O,18,
C[C@@H]1O[C@@H](OC[C@H]2O[C@@H](Oc3c(-c4ccc(O)c(O)c4)oc4cc(O)cc(O)c4c3=O)[C@H](O[C@@H]3O[C@@H](C)[C@H](O)[C@@H](O)[C@H]3O)[C@@H](O)[C@H]2O)[C@H](O)[C@H](O)[C@H]1O,> 30,inhibition [2]: 40%
COc1cc(-c2oc3cc(O)cc(O)c3c(=O)c2O[C@@H]2O[C@@H](C)[C@H](O)[C@@H](O)[C@H]2O)ccc1O,19,
C[C@@H]1O[C@@H](O[C@H]2[C@H](Oc3c(-c4ccc(O)c(O)c4)oc4cc(O)cc(O)c4c3=O)O[C@H](CO)[C@H](O)[C@@H]2O)[C@H](O)[C@H](O)[C@H]1O,18,
CC(=O)Oc1ccccc1C(=O)O [ASPIRIN],,inhibition at 1000 µM (Platelet [3]): 53.5%; inhibition at 500 µM (Platelet [4]): 39.4%; inhibition at 100 µM (Platelet [5]): 15.8%
